Test results: ChEMBL document CHEMBL1201862, “PubChem BioAssay data set” (2004)
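Test compounds were applied to cells in 96-well plates for 48 hours at 5 doses. The concentration for 50% growth inhibition is given as GI50.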 The source made the active and inactive calls. Cut-off read from the data, not from the text of the source: active = GI50 up to about 1.1 µM and inactive = higher.

How the values were obtained:
Experiment in all cases: NCI tumour cell line growth inhibition, 48 h
A498 = system: A498
A549 = system: A549
BT-549 = system: BT-549
DU-145 = system: DU-145
HL-60 = system: HL-60
HOP-62 = system: HOP-62
KM12 = system: KM12
M14 = system: M14
MDA-N = system: MDA-N
NCI/ADR-RES = system: NCI/ADR-RES
OVCAR-4 = system: OVCAR-4
SK-MEL-28 = system: SK-MEL-28
SK-MEL-2 = system: SK-MEL-2
SNB-75 = system: SNB-75
TK-10 = system: TK-10
UACC-62 = system: UACC-62
UO-31 = system: UO-31
HOP-92 = system: HOP-92
IGROV-1 = system: IGROV-1
RXF 393 = system: RXF 393

Compound	GI50 (A498)	GI50 (A549)	GI50 (BT-549)	GI50 (DU-145)	GI50 (HL-60)	GI50 (HOP-62)	GI50 (KM12)	GI50 (M14)	GI50 (MDA-N)	GI50 (NCI/ADR-RES)	GI50 (OVCAR-4)	GI50 (SK-MEL-28)	GI50 (SK-MEL-2)	GI50 (SNB-75)	GI50 (TK-10)	GI50 (UACC-62)	GI50 (UO-31)	GI50 (HOP-92)	GI50 (IGROV-1)	GI50 (RXF 393)
COc1cc2c(cc1OC)C1=Cc3ccc(OC)c(OC)c3C(C#N)N1CC2 (stereo not given)	> 100 µM (inactive)	56.4 µM (inactive)	14.6 µM (inactive)	39.7 µM (inactive)	39 µM (inactive)	42.4 µM (inactive)	21.1 µM (inactive)	50.2 µM (inactive)	33.7 µM (inactive)	> 100 µM (inactive)	67 µM (inactive)	32.4 µM (inactive)	19.7 µM (inactive)	5.22 µM (inactive)	> 100 µM (inactive)	17.1 µM (inactive)	> 100 µM (inactive)			
COC(=O)/C=C/c1ccc2c(c1)[C@H](C(=O)OC)[C@@H](c1ccc(O)cc1)O2	86.9 µM (inactive)	34.2 µM (inactive)	16.8 µM (inactive)	71.3 µM (inactive)	6.27 µM (inactive)	35.8 µM (inactive)	19 µM (inactive)	10.5 µM (inactive)	5.06 µM (inactive)	32.3 µM (inactive)	29.3 µM (inactive)	23.1 µM (inactive)	4.62 µM (inactive)		41.4 µM (inactive)	20 µM (inactive)	28.5 µM (inactive)	59 µM (inactive)	27.4 µM (inactive)	
COc1ccc(-c2nc3cc(F)ccc3s2)cc1O	29.7 µM (inactive)	34.1 µM (inactive)	17.2 µM (inactive)	38 µM (inactive)	32.6 µM (inactive)		12.2 µM (inactive)	26.5 µM (inactive)	57.3 µM (inactive)	46.3 µM (inactive)	28.8 µM (inactive)	75.7 µM (inactive)	27.9 µM (inactive)		16.2 µM (inactive)	30.7 µM (inactive)	30.8 µM (inactive)		3.81 µM (inactive)	36.8 µM (inactive)
O=C(Nc1ccccc1F)c1cc2ccc(O)cc2o/c1=N\c1cccc(C(F)(F)F)c1	7.4 µM (inactive)	3.18 µM (inactive)	2.67 µM (inactive)	4.04 µM (inactive)	1.66 µM (inactive)	7.91 µM (inactive)	3.71 µM (inactive)	5.18 µM (inactive)	3.73 µM (inactive)	3.22 µM (inactive)	2.63 µM (inactive)	3.82 µM (inactive)	4.36 µM (inactive)			3.81 µM (inactive)	3.85 µM (inactive)		2.08 µM (inactive)	
COc1cc([C@H]2c3cc(O)c(OC)cc3C[C@]3(O)[C@@H]2CO[C@@H]3O)ccc1O	> 100 µM (inactive)	> 100 µM (inactive)	> 100 µM (inactive)	> 100 µM (inactive)	> 100 µM (inactive)	> 100 µM (inactive)	> 100 µM (inactive)	> 100 µM (inactive)	> 100 µM (inactive)	> 100 µM (inactive)	> 100 µM (inactive)	> 100 µM (inactive)	> 100 µM (inactive)	> 100 µM (inactive)	> 100 µM (inactive)	> 100 µM (inactive)	> 100 µM (inactive)	> 100 µM (inactive)	> 100 µM (inactive)	
Cc1cccc(/C=N/NC(=S)N2CCCC2)n1	0.347 µM (active)	0.514 µM (active)	1.76 µM (inactive)	0.373 µM (active)	0.0559 µM (active)	0.209 µM (active)		0.133 µM (active)	0.417 µM (active)	0.166 µM (active)	0.195 µM (active)	1.02 µM (active)	1.01 µM (active)	2.95 µM (inactive)	0.177 µM (active)	0.296 µM (active)	0.297 µM (active)	1.65 µM (inactive)	0.822 µM (active)	
